Reference: the NIST ThermoML archive (doi:10.1016/j.jct.2016.08.008)
± gives the expanded uncertainty stated by the source.

test: activity coefficient (dimensionless); of the first substance listed, at infinite dilution; xn = mol fraction of the nth substance listed; conditions: 328.15 K; 101.33 kPa; Liquid; Chromatography; x1 = 0

| SMILES | activity coefficient |
| --- | --- |
| CCC(C)(C)OC [2-methoxy-2-methylbutane] + CCCCCCCCCCCCn1cc[n+](C)c1.O=S(=O)([N-]S(=O)(=O)C(F)(F)F)C(F)(F)F | 1.17 ± 0.07 |
| COC(C)(C)C [2-methoxy-2-methylpropane] + CCCCCCCCCCCCn1cc[n+](C)c1.O=S(=O)([N-]S(=O)(=O)C(F)(F)F)C(F)(F)F | 0.985 ± 0.062 |
| CC(C)CO [2-methyl-1-propanol] + CCCCCCCCCCCCn1cc[n+](C)c1.O=S(=O)([N-]S(=O)(=O)C(F)(F)F)C(F)(F)F | 1.42 ± 0.09 |
| CC(C)(C)O [2-methylpropan-2-ol] + CCCCCCCCCCCCn1cc[n+](C)c1.O=S(=O)([N-]S(=O)(=O)C(F)(F)F)C(F)(F)F | 1.08 ± 0.07 |
| CCC(C)CC [3-methylpentane] + CCCCCCCCCCCCn1cc[n+](C)c1.O=S(=O)([N-]S(=O)(=O)C(F)(F)F)C(F)(F)F | 2.83 ± 0.19 |
| C=C(C)c1ccccc1 [(1-methylethenyl)benzene] + CCCCCCCCCCCCn1cc[n+](C)c1.O=S(=O)([N-]S(=O)(=O)C(F)(F)F)C(F)(F)F | 0.842 ± 0.054 |
| CC(C)=O [acetone] + CCCCCCCCCCCCn1cc[n+](C)c1.O=S(=O)([N-]S(=O)(=O)C(F)(F)F)C(F)(F)F | 0.369 ± 0.033 |
| CC#N [acetonitrile] + CCCCCCCCCCCCn1cc[n+](C)c1.O=S(=O)([N-]S(=O)(=O)C(F)(F)F)C(F)(F)F | 0.515 ± 0.038 |
| c1ccccc1 [benzene] + CCCCCCCCCCCCn1cc[n+](C)c1.O=S(=O)([N-]S(=O)(=O)C(F)(F)F)C(F)(F)F | 0.594 ± 0.042 |
| CCCCO [butan-1-ol] + CCCCCCCCCCCCn1cc[n+](C)c1.O=S(=O)([N-]S(=O)(=O)C(F)(F)F)C(F)(F)F | 1.46 ± 0.1 |
| CCC(C)O (configuration not stated) [butan-2-ol] + CCCCCCCCCCCCn1cc[n+](C)c1.O=S(=O)([N-]S(=O)(=O)C(F)(F)F)C(F)(F)F | 1.23 ± 0.08 |
| CCCC=O [butanal] + CCCCCCCCCCCCn1cc[n+](C)c1.O=S(=O)([N-]S(=O)(=O)C(F)(F)F)C(F)(F)F | 0.486 ± 0.037 |
| C1CCCCCC1 [cycloheptane] + CCCCCCCCCCCCn1cc[n+](C)c1.O=S(=O)([N-]S(=O)(=O)C(F)(F)F)C(F)(F)F | 2.45 ± 0.17 |
| C1CCCCC1 [cyclohexane] + CCCCCCCCCCCCn1cc[n+](C)c1.O=S(=O)([N-]S(=O)(=O)C(F)(F)F)C(F)(F)F | 2.15 ± 0.15 |
| C1=CCCCC1 [cyclohexene] + CCCCCCCCCCCCn1cc[n+](C)c1.O=S(=O)([N-]S(=O)(=O)C(F)(F)F)C(F)(F)F | 1.59 ± 0.11 |
| C1CCCCCCC1 [cyclooctane] + CCCCCCCCCCCCn1cc[n+](C)c1.O=S(=O)([N-]S(=O)(=O)C(F)(F)F)C(F)(F)F | 2.82 ± 0.19 |

same assay, conditions: 338.15 K; 101.33 kPa; Liquid; Chromatography; x1 = 0

| SMILES | activity coefficient |
| --- | --- |
| Cc1ccccc1C [1,2-dimethylbenzene] + CCCCCCCCCCCCn1cc[n+](C)c1.O=S(=O)([N-]S(=O)(=O)C(F)(F)F)C(F)(F)F | 0.892 ± 0.057 |
| Cc1cccc(C)c1 [1,3-dimethylbenzene] + CCCCCCCCCCCCn1cc[n+](C)c1.O=S(=O)([N-]S(=O)(=O)C(F)(F)F)C(F)(F)F | 0.96 ± 0.06 |
| Cc1ccc(C)cc1 [1,4-dimethylbenzene] + CCCCCCCCCCCCn1cc[n+](C)c1.O=S(=O)([N-]S(=O)(=O)C(F)(F)F)C(F)(F)F | 0.958 ± 0.06 |
| C1COCCO1 [1,4-dioxane] + CCCCCCCCCCCCn1cc[n+](C)c1.O=S(=O)([N-]S(=O)(=O)C(F)(F)F)C(F)(F)F | 0.524 ± 0.039 |
| C=CCCCCCCCC [1-decene] + CCCCCCCCCCCCn1cc[n+](C)c1.O=S(=O)([N-]S(=O)(=O)C(F)(F)F)C(F)(F)F | 4.36 ± 0.3 |
| C=CCCCCC [1-heptene] + CCCCCCCCCCCCn1cc[n+](C)c1.O=S(=O)([N-]S(=O)(=O)C(F)(F)F)C(F)(F)F | 2.68 ± 0.18 |
| C#CCCCCC [1-heptyne] + CCCCCCCCCCCCn1cc[n+](C)c1.O=S(=O)([N-]S(=O)(=O)C(F)(F)F)C(F)(F)F | 1.59 ± 0.11 |
| C#CCCCC [1-hexyne] + CCCCCCCCCCCCn1cc[n+](C)c1.O=S(=O)([N-]S(=O)(=O)C(F)(F)F)C(F)(F)F | 1.35 ± 0.09 |
| CCC[N+](=O)[O-] [1-nitropropane] + CCCCCCCCCCCCn1cc[n+](C)c1.O=S(=O)([N-]S(=O)(=O)C(F)(F)F)C(F)(F)F | 0.596 ± 0.042 |
| C#CCCCCCC [1-octyne] + CCCCCCCCCCCCn1cc[n+](C)c1.O=S(=O)([N-]S(=O)(=O)C(F)(F)F)C(F)(F)F | 1.87 ± 0.13 |
| C=CCCC [1-pentene] + CCCCCCCCCCCCn1cc[n+](C)c1.O=S(=O)([N-]S(=O)(=O)C(F)(F)F)C(F)(F)F | 1.93 ± 0.13 |
| C#CCCC [1-pentyne] + CCCCCCCCCCCCn1cc[n+](C)c1.O=S(=O)([N-]S(=O)(=O)C(F)(F)F)C(F)(F)F | 1.16 ± 0.07 |
| CC(C)CC(C)(C)C [2,2,4-trimethylpentane] + CCCCCCCCCCCCn1cc[n+](C)c1.O=S(=O)([N-]S(=O)(=O)C(F)(F)F)C(F)(F)F | 3.72 ± 0.25 |
| CCC(C)(C)C [2,2-dimethylbutane] + CCCCCCCCCCCCn1cc[n+](C)c1.O=S(=O)([N-]S(=O)(=O)C(F)(F)F)C(F)(F)F | 2.95 ± 0.2 |
| CCOC(C)(C)C [2-ethoxy-2-methylpropane] + CCCCCCCCCCCCn1cc[n+](C)c1.O=S(=O)([N-]S(=O)(=O)C(F)(F)F)C(F)(F)F | 1.69 ± 0.11 |
| CCC(C)(C)OC [2-methoxy-2-methylbutane] + CCCCCCCCCCCCn1cc[n+](C)c1.O=S(=O)([N-]S(=O)(=O)C(F)(F)F)C(F)(F)F | 1.23 ± 0.08 |

| SMILES | activity coefficient |
| --- | --- |
| COC(C)(C)C [2-methoxy-2-methylpropane] + CCCCCCCCCCCCn1cc[n+](C)c1.O=S(=O)([N-]S(=O)(=O)C(F)(F)F)C(F)(F)F | 1.04 ± 0.07 |
| CC(C)CO [2-methyl-1-propanol] + CCCCCCCCCCCCn1cc[n+](C)c1.O=S(=O)([N-]S(=O)(=O)C(F)(F)F)C(F)(F)F | 1.34 ± 0.09 |
| CC(C)(C)O [2-methylpropan-2-ol] + CCCCCCCCCCCCn1cc[n+](C)c1.O=S(=O)([N-]S(=O)(=O)C(F)(F)F)C(F)(F)F | 1.04 ± 0.07 |
| CCC(C)CC [3-methylpentane] + CCCCCCCCCCCCn1cc[n+](C)c1.O=S(=O)([N-]S(=O)(=O)C(F)(F)F)C(F)(F)F | 2.89 ± 0.2 |
| C=C(C)c1ccccc1 [(1-methylethenyl)benzene] + CCCCCCCCCCCCn1cc[n+](C)c1.O=S(=O)([N-]S(=O)(=O)C(F)(F)F)C(F)(F)F | 0.896 ± 0.057 |
| CC(C)=O [acetone] + CCCCCCCCCCCCn1cc[n+](C)c1.O=S(=O)([N-]S(=O)(=O)C(F)(F)F)C(F)(F)F | 0.386 ± 0.033 |
| CC#N [acetonitrile] + CCCCCCCCCCCCn1cc[n+](C)c1.O=S(=O)([N-]S(=O)(=O)C(F)(F)F)C(F)(F)F | 0.524 ± 0.039 |
| c1ccccc1 [benzene] + CCCCCCCCCCCCn1cc[n+](C)c1.O=S(=O)([N-]S(=O)(=O)C(F)(F)F)C(F)(F)F | 0.619 ± 0.043 |
| CCCCO [butan-1-ol] + CCCCCCCCCCCCn1cc[n+](C)c1.O=S(=O)([N-]S(=O)(=O)C(F)(F)F)C(F)(F)F | 1.38 ± 0.09 |
| CCC(C)O (configuration not stated) [butan-2-ol] + CCCCCCCCCCCCn1cc[n+](C)c1.O=S(=O)([N-]S(=O)(=O)C(F)(F)F)C(F)(F)F | 1.18 ± 0.08 |
| CCCC=O [butanal] + CCCCCCCCCCCCn1cc[n+](C)c1.O=S(=O)([N-]S(=O)(=O)C(F)(F)F)C(F)(F)F | 0.51 ± 0.038 |
| C1CCCCCC1 [cycloheptane] + CCCCCCCCCCCCn1cc[n+](C)c1.O=S(=O)([N-]S(=O)(=O)C(F)(F)F)C(F)(F)F | 2.47 ± 0.17 |
| C1CCCCC1 [cyclohexane] + CCCCCCCCCCCCn1cc[n+](C)c1.O=S(=O)([N-]S(=O)(=O)C(F)(F)F)C(F)(F)F | 2.17 ± 0.15 |
| C1=CCCCC1 [cyclohexene] + CCCCCCCCCCCCn1cc[n+](C)c1.O=S(=O)([N-]S(=O)(=O)C(F)(F)F)C(F)(F)F | 1.62 ± 0.11 |
| C1CCCCCCC1 [cyclooctane] + CCCCCCCCCCCCn1cc[n+](C)c1.O=S(=O)([N-]S(=O)(=O)C(F)(F)F)C(F)(F)F | 2.83 ± 0.19 |
